{"source": "patent US20170326165A1", "about": "“USE OF RIBOSE IN FIRST RESPONSE TO ACUTE MYOCARDIAL INFARCTION” (BIOENERGY, INC., priority 2008, published 2017)", "key": {"[1]": {"test_system": "acute, first response MI patients", "test": "first response acute MI patients given D-ribose (subset of Group 1)", "assay_type": "in vivo, human", "conditions": "seven first response MI patients", "excerpt": "(§1) Following the initial study described in Example 2, 366 consecutive patients, 41-88 years of age, undergoing OPCABG were enrolled. Of these, 89 had recent MIs and seven presented with MIs within one to seven days. Prospectively collected data included comorbidities, hemodynamics and outcomes. All patients were managed with a protocol emphasizing normoglycemia, normothermia and reduced inflammation. Group 1 (n=308) received multiple oral doses (5 gram/dose) of D-ribose prior to and following surgery. […] Otherwise, both groups had similar preoperative characteristics including ejection fraction (EJ) and Society for Thoracic Surgery (STS) Risk Indices with nonsignificant trends in the increased comorbidities in Group 1.\nA. While these studies are promising, neither replicates the clinical situation of a patient presenting at first response with an acute myocardial infarction, where time is of the essence. In most cases, MI is a spontaneous event, but an MI can be induced during a procedure such as angiogram, angioplasty or dobutamine echocardiography. Such a patient is generally in the process of compromising cardiac function.\nIt should also be mentioned that these seven patients are included in Group 1 of Table I. With preloading with D-ribose, they were able to maintain and slightly increase their CI in comparison to the total group."}, "healthy dog hearts": {"test_system": "healthy dog hearts", "conditions": "administration immediately at reperfusion and continuing for at least four days; cited from earlier work"}, "[2]": {"test_system": "patients undergoing OPCABG", "test": "metabolically directed protocol: oral D-ribose prior to and following OPCABG", "assay_type": "in vivo, human", "excerpt": "as §1"}, "[3]": {"test_system": "myocardial dysfunction resulting from globally induced ischemia during cardiac surgical procedures", "assay_type": "in vivo, human", "experimental": "B. A preconditioning study was performed in human patients scheduled for surgery.\nInclusion criteria were: • Males or females aged 18 or older • Patients with documented coronary artery disease undergoing CABG with an ejection fraction (EF) of 35% based on echocardiography, radionuclide imaging or cardiac catheterization done within eight weeks of surgery. (If more than one method was used to evaluate EF during this period, the mean values of the various methods were 35%). • Patients undergoing single or double valve replacement with documented coronary artery disease also undergoing CABG; or patients undergoing single or double valve replacement without CABG • Serum creatinine of <2.35 mg/dl • For females of childbearing potential, a negative pregnancy test. • Signed consent forms.\nThe test article, placebo or ribose, was dispensed according to computer-generated randomization schedule either for patients undergoing CABG only or for patients undergoing heart valve surgery +/−CABG. All patients received a high dose narcotic anaesthesia technique consisting of either fentanyl (50-100 μg/kg) or sufentanil (10-20 μg/kg) and midazolam. No restriction was placed on the type of anaesthetic agents administered. The anaesthesiologists and surgeons responsible for the care of the patents made the clinical decision to use inotropic support, intra-aortic balloon pump support or post bypass circulatory support based on their knowledge of patients requirements and accepted medical practice and without regard to test article status. The test article infusion was started intravenously at the time of aortic cross clamping and continued until the pulmonary artery catheters introducer was removed or for five days (120) hours whichever occurred first. The surgeons responsible for the clinical care of the patients removed the pulmonary artery catheter cordis without regard to test article stats.\nHemodynamic measurements consisting of heart rate, blood pressure, pulmonary artery pressures, pulmonary capillary wedge pressure (PCWP), central venous pressure (CVP) and thermodilution cardiac index (CI) were obtained at the following time intervals: immediately prior to induction of anaesthesia, post induction of anaesthesia prior to sternotomy, post sternotomy prior to initiation of cardiopulmonary bypass, upon successful termination of cardiopulmonary bypass prior to sternal closure and prior to reversal of heparinization with protamine, post closure of the sternum, upon arrival in the intensive care unit and at one or two hour intervals until the pulmonary artery a catheter was removed.\nTransesophageal echocardiography data (H.P. Sonos OR, 5.0 MHz, Andover, Mass.) was collected at the following time intervals: post induction of anaesthesia prior to sternotomy, and immediately post closure of the sternum. Transthoracic echocardiography (H.P. Sonos 1500. 2.5 MHz, Andover, Mass.) measurements were made on day three and day seven of the study period. For both the transesophageal and transthoracic echocardiograms, the following long axis and short axis mid-papillary area changes were measured in triplicate by acoustic quantification techniques: end diastolic area (EDA), end systolic area (ESA), fractional area change (FAC), +dA/dt and −dA/dt. All area change data were also analyzed by manual off line analysis. EF was also determined off line using a long axis view, In addition, regional wall motion was quantified as the following: normal=1, hypokinetic=2, akinetic=3 and dyskinetic=4. The wall motion index score (WMIS) and percentage normal myocardium were calculated by reading a maximum of sixteen segments. Echocardiography data for evaluating wall motion and area change was analyzed only if greater than 75% of the endocardial border could be visualized through a complete cardiac cycle. Off line analysis was performed on an Image View echocardiography workstation (Nova Microsonics, Allendale, N.J.). […]"}, "[4]": {"test_system": "rats subjected to an anterior MI", "conditions": "intravenous ribose for 14 days previous to the inducement of MI; cited from earlier work"}, "[5]": {"conditions": "Group 1, oral D-ribose, p<0.001 versus Group 2"}}}
{"compound": "O=C[C@H](O)[C@H](O)[C@H](O)CO", "note": "[D-ribose]", "values": [{"measurement": "Change (Preop CI to Postop CI)", "setting": "[1]", "value": "+0.41"}, {"measurement": "Postop CI", "setting": "[1]", "value": "2.60 ± 0.4"}, {"measurement": "Preop CI", "setting": "[1]", "value": "2.19 ± 0.7"}, {"measurement": "ATP recovery", "setting": "healthy dog hearts", "value": "enhanced ATP recovery"}, {"measurement": "postoperative death", "setting": "[2]; Group 1", "value": "one"}, {"measurement": "time in intensive care", "setting": "[2]; Group 1 (n=308), multiple oral doses 5 gram/dose prior to and following surgery, trend not significant", "value": 72, "unit": "h"}, {"measurement": "requirement for IABP", "setting": "[2]; Group 1 (n=308), oral D-ribose, trend not significant", "value": 12, "unit": "%"}, {"measurement": "increase in CI after surgery", "setting": "[2]; [5]", "value": 0.8}, {"measurement": "patients demonstrating an increase in CI after OPCABG", "setting": "[2]; [5]", "value": 86, "unit": "%"}, {"measurement": "Postop CI", "setting": "[2]; Group 1, postoperative cardiac index", "value": "3.0 ± 0.7"}, {"measurement": "Preop CI", "setting": "[2]; Group 1, preoperative cardiac index", "value": "2.3 ± 0.5"}, {"measurement": "Change (Preop CI to Postop CI)", "setting": "[2]; Group 1 of Table I", "value": "+0.07"}, {"measurement": "patients who developed hypoglycemia (fingerstick glucose <70 mg/dl)", "setting": "[3]; both, human, in vivo", "value": 28, "unit": "%"}, {"measurement": "lowest glucose level", "setting": "[3]; human, in vivo", "value": 31, "unit": "mg/dL"}, {"measurement": "mean glucose level in those patients developing hypoglycemia", "setting": "[3]; human, in vivo", "value": 58, "unit": "mg/dL"}, {"measurement": "neurological or other clinical symptoms associated with hypoglycemia", "setting": "[3]; human, in vivo", "value": "None"}, {"measurement": "subjects in whom study drug infusion was stopped because of hypoglycemia", "setting": "[3]; human, in vivo", "value": "two"}, {"measurement": "mean Day 7 EF", "setting": "[3]; ribose treated patients, Day 7, echocardiography, IV infusion 100 mg/kg/hr", "value": 41, "unit": "%"}, {"measurement": "mean baseline EF", "setting": "[3]; ribose treated patients, baseline, echocardiography, IV infusion 100 mg/kg/hr", "value": 44, "unit": "%"}, {"measurement": "parameters of heart function (LV diastolic diameter, LV systolic diameter, ejection fraction, shortening fraction)", "setting": "[4]", "value": "Significant improvement"}]}
